Measurements taken from the NIST ThermoML archive (doi:10.1016/j.fluid.2018.02.009).
± gives the expanded uncertainty stated by the source.

Details: Liquid, Closed cell (Static) method

Q: For `O=C=O` [carbon dioxide], which “vapor or sublimation pressure” value (213.22 K) is on record?
A: 410.4 ± 1.2 kPa

Q: What about the “vapor or sublimation pressure” value (223.15 K) of the same compound?
A: 681.8 ± 2.4 kPa

Q: And the “vapor or sublimation pressure” value (243.13 K)?
A: 1426.3 ± 2.5 kPa

Q: What about the “vapor or sublimation pressure” value (263.13 K) of the same compound?
A: 2646.7 ± 4.3 kPa

Q: And the “vapor or sublimation pressure” value (273.22 K)?
A: 3491.3 ± 5.4 kPa

Q: What about the “vapor or sublimation pressure” value (283.15 K) of the same compound?
A: 4502.3 ± 7 kPa

Q: And the “vapor or sublimation pressure” value (299.22 K)?
A: 6595 ± 10 kPa
